# Biological target: MAPK14 (human) (UniProt Q16539)
# Assay: Inhibition of MAPK14 Kinase Activity
# Conditions: not given
# Sequence of MAPK14 (human) (Q16539 whole entry, looked up): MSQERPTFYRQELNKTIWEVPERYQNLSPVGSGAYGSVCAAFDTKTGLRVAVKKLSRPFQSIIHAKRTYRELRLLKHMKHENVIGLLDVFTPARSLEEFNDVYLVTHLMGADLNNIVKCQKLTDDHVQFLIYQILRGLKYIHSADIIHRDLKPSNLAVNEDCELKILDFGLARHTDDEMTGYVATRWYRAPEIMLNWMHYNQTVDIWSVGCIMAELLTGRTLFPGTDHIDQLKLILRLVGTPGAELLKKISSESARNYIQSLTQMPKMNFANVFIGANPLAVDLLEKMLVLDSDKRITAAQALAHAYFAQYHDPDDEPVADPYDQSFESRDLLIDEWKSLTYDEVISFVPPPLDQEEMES
row,Structure (SMILES),IC50 [µM]
1,CCC1(C)C(=O)N(CC(=O)N(C)OC)CCN1C(=O)c1cc(C(C)(C)C)sc1NC(=O)Nc1cccc(Cl)c1Cl (stereo not drawn),< 5
2,CC(C)(C)c1cc(C(=O)N2CCN(CC(O)CO)C(=O)C2(C)C)c(NC(=O)Nc2cccc(Cl)c2Cl)s1 (stereo not drawn),< 5
3,CC(C)(C)c1cc(C(=O)N2CCNC(=O)C2(C)CCO)c(NC(=O)Nc2cccc(Cl)c2Cl)[nH]1 (stereo not drawn),< 5
4,COc1ccc(CC(=O)N2CCN(C(=O)c3cc(C(C)(C)C)sc3NC(=O)Nc3cccc(Cl)c3Cl)CC2)cc1,< 5
5,CN(C)CCNC(=O)CN1CCN(C(=O)c2sc(C(C)(C)C)cc2NC(=O)Nc2ccc(F)c(Cl)c2Cl)C(C)(C)C1=O,< 5
6,COc1ccc(CCC(=O)N2CCN(C(=O)c3cc(C(C)(C)C)sc3NC(=O)Nc3cccc(Cl)c3Cl)CC2)cc1,< 5
7,CC1(C)OCC(CN2CCN(C(=O)c3cc(C(C)(C)C)sc3NC(=O)Nc3cccc(Cl)c3Cl)C(C)(C)C2=O)O1 (stereo not drawn),< 5
8,CCC1(C)C(=O)N(CCN(C)C)CCN1C(=O)c1cc(C(C)(C)C)sc1NC(=O)Nc1ccc(F)cc1 (stereo not drawn),< 5
9,Cc1ccccc1NC(=O)Nc1sc(C(C)(C)C)cc1C(=O)N1CCN(CCN(C)C)C(=O)C1(C)C,< 5
10,COc1cccc(NC(=O)Nc2sc(C(C)(C)C)cc2C(=O)N2CCN(CCN(C)C)C(=O)C2(C)C)c1Cl,< 5
11,Cc1cccc(NC(=O)Nc2sc(C(C)(C)C)cc2C(=O)N2CCNC(=O)C2(C)C)c1Cl,< 5
12,CC(C)(C)c1cc(C(=O)N2CCNC(=O)CC2)c(NC(=O)Nc2ccc(OC(F)F)c(Cl)c2Cl)s1,< 5
13,CC(C)(C)c1cc(C(=O)N2CCNC(=O)CC2)c(NC(=O)Nc2cccnc2Cl)s1,< 5
14,CC(C)(C)c1cc(C(=O)N2CCNC(=O)C2(C)C)c(NC(=O)Nc2ccc(F)c(Cl)c2Cl)s1,< 5
15,CC(C)(C)c1cc(C(=O)N2CCNC(=O)CC2)c(NC(=O)Nc2ccccc2C(C)(C)C)s1,< 5
16,CN(C)CCN1CCN(C(=O)c2cc(C(C)(C)C)sc2NC(=O)Nc2ccccc2C(C)(C)C)CCC1=O,< 5
17,CC(C)(C)c1cc(C(=O)N2CCNC(=O)C23CCC3)c(NC(=O)Nc2ccc(F)c(Cl)c2Cl)s1,< 5
18,CC(C)(C)c1nc(C(=O)N2CCNC(=O)C2(C)C)c(NC(=O)Nc2ccc(F)c(Cl)c2Cl)s1,< 5
19,Cc1ccccc1NC(=O)Nc1sc(C(C)(C)C)cc1C(=O)N1CCC(=O)N(CCN(C)C)CC1,< 5
20,CC(C)(C)c1cc(NC(=O)Nc2cccc(Cl)c2Cl)c(C(=O)N2CCNC(=O)CC2)[nH]1,< 5
21,CC(C)(C)c1cc(NC(=O)Nc2cccc(Cl)c2Cl)c(C(=O)N2CCNC(=O)C2(C)C)o1,< 5
22,CONC(=O)CN1CCN(C(=O)c2cc(C(C)(C)C)sc2NC(=O)Nc2cccc(Cl)c2Cl)C(C)(C)C1=O,< 5
23,CCC(C)(C)c1cc(NC(=O)Nc2cccc(Cl)c2Cl)c(C(=O)N2CCNC(=O)C2(C)C)[nH]1,< 5
24,COC(=O)CC1(C)C(=O)NCCN1C(=O)c1sc(C(C)(C)C)cc1NC(=O)Nc1ccc(F)c(F)c1Cl (stereo not drawn),< 5
25,Cc1cccc(Cl)c1NC(=O)Nc1cc(C(C)(C)C)sc1C(=O)N1CCNC(=O)C1(C)C,< 5
26,CCC1(C)C(=O)N(CCN(C)C)CCN1C(=O)c1cc(C(C)(C)C)sc1NC(=O)Nc1ccc(F)c(Cl)c1Cl (stereo not drawn),< 5

row,Structure (SMILES),IC50 [µM]
1,CCC1(C)C(=O)N(CC(=O)OC)CCN1C(=O)c1cc(C(C)(C)C)sc1NC(=O)Nc1cccc(Cl)c1Cl (stereo not drawn),< 5
2,CN(C)CCN1CCN(C(=O)c2cc(C(C)(C)C)sc2NC(=O)Nc2cccnc2Cl)C(C)(C)C1=O,< 5
3,O=C1CCN(C(=O)c2cc(Cl)c(C(F)(F)F)cc2NC(=O)Nc2cccc(Cl)c2Cl)CCN1,< 5
4,Cc1ccccc1NC(=O)Nc1sc(C(C)(C)C)cc1C(=O)N1CCNC(=O)C1(C)C,< 5
5,CN(C)CCNC(=O)CN1CCN(C(=O)c2sc(C(C)(C)C)cc2NC(=O)Nc2ccnc(Cl)c2Cl)C(C)(C)C1=O,< 5
6,CN(C)CCNC(=O)CN1CCN(C(=O)c2nc(C(C)(C)C)sc2NC(=O)Nc2cccc(Cl)c2Cl)C(C)(C)C1=O,< 5
7,CC(C)(C)c1nc(C(=O)N2CCNC(=O)C2(C)C)c(NC(=O)Nc2cccc(Cl)c2Cl)s1,< 5
8,CN(C)CCNC(=O)CN1CCN(C(=O)c2cc(C(C)(C)C)[nH]c2NC(=O)Nc2cccc(Cl)c2Cl)C(C)(C)C1=O,< 5
9,COc1ccccc1NC(=O)Nc1sc(C(C)(C)C)cc1C(=O)N1CCNC(=O)CC1,< 5
10,CC(C)(C)c1cc(C(=O)N2CCNC(=O)CC2)c(NC(=O)Nc2ccc(O)c(Cl)c2Cl)s1,< 5
11,CN(C)CCN1CCN(C(=O)c2oc(C(C)(C)C)cc2NC(=O)Nc2cccc(Cl)c2Cl)CCS1(=O)=O,< 5
12,CC1(C)CN(C(=O)c2cc(C(C)(C)C)sc2NC(=O)Nc2cccc(Cl)c2Cl)CCNC1=O,< 5
13,CCC1(C)C(=O)NCCN1C(=O)c1cc(C(C)(C)C)sc1NC(=O)Nc1cccc(Cl)c1Cl (stereo not drawn),< 5
14,CN(C)CCNC(=O)CN1CCN(C(=O)c2sc(C(C)(C)C)cc2NC(=O)Nc2cccc(Cl)c2Cl)C(C)(C)C1=O,< 5
15,CN(C)CCNC(=O)CN1CCN(C(=O)c2cc(C(C)(C)C)sc2NC(=O)Nc2ccc(F)c(F)c2Cl)CCC1=O,< 5
16,COC(=O)CC1(C)C(=O)NCCN1C(=O)c1[nH]c(C(C)(C)C)cc1NC(=O)Nc1ccc(F)c(Cl)c1Cl (stereo not drawn),< 5
17,CN(C)CCN1CCN(C(=O)c2sc(C(C)(C)C)cc2NC(=O)Nc2ccc(F)c(Cl)c2Cl)CCC1=O,< 5
18,CC(C)(C)c1cc(C(=O)N2CCCN(S(C)(=O)=O)CC2)c(NC(=O)Nc2cccc(Cl)c2Cl)s1,< 5
19,CC(=O)NC1CCCN(C(=O)c2cc(C(C)(C)C)sc2NC(=O)Nc2cccc(Cl)c2Cl)C1 (stereo not drawn),< 5
20,CN(C)CCN1CCN(C(=O)c2[nH]c(C(C)(C)C)cc2NC(=O)Nc2cccc(Cl)c2Cl)CCC1=O,< 5
21,CC(C)(C)c1cc(C(=O)N2CCNC(=O)C2)c(NC(=O)Nc2cccc(Cl)c2Cl)s1,< 5
22,CC(C)(C)c1cc(C(=O)N2CCNC(=O)CC2)c(NC(=O)Nc2ccccc2Br)s1,< 5
23,CCN(CC)CCNC(=O)CN1CCN(C(=O)c2cc(C(C)(C)C)sc2NC(=O)Nc2cccc(Cl)c2Cl)C(C)(C)C1=O,< 5
24,CONC(=O)CN1CCN(C(=O)c2cc(C(C)(C)C)sc2NC(=O)Nc2cccc(Cl)c2Cl)C(C)(CC(=O)NOC)C1=O (stereo not drawn),< 5
25,CC(C)(C)c1cc(C(=O)N2CCNC(=O)C2(C)CCO)c(NC(=O)Nc2ccc(F)c(Cl)c2Cl)s1 (stereo not drawn),< 5
26,CC(C)(C)c1cc(NC(=O)Nc2cccc(Cl)c2Cl)c(C(=O)N2CCNS(=O)(=O)CC2)o1,< 5

row,Structure (SMILES),IC50 [µM]
1,Cc1cccc(NC(=O)Nc2sc(C(C)(C)C)cc2C(=O)N2CCC(=O)N(CCN(C)C)CC2)c1Cl,< 5
2,CC(C)(C)c1cc(C(=O)N2CCNC(=O)[C@@H]2CCc2ccccc2)c(NC(=O)Nc2cccc(Cl)c2Cl)s1,< 5
3,CC(C)(C)c1cc(C(=O)N2CCNC(=O)C2)c(NC(=O)Nc2ccc(F)c(Cl)c2Cl)s1,< 5
4,CC(C)(C)c1cc(C(=O)N2CCNC(=O)CC2)c(NC(=O)Nc2cccc(Cl)c2Cl)[nH]1,< 5
5,CN(C)CCN1CCN(C(=O)c2[nH]c(C(C)(C)C)cc2NC(=O)Nc2ccc(F)c(Cl)c2Cl)CCC1=O,< 5
6,CC(C)(C)c1cc(C(=O)N2CCNC(=O)C2(C)C)c(NC(=O)Nc2ccc(OC(F)F)c(Cl)c2Cl)s1,< 5
7,CC(C)(C)c1nc(C(=O)N2CCNS(=O)(=O)CC2)c(NC(=O)Nc2cccc(Cl)c2Cl)s1,< 5
8,CC(C)(C)c1nc(C(=O)N2CCNC(=O)C2)c(NC(=O)Nc2cccc(Cl)c2Cl)s1,< 5
9,CCOC(=O)CN1CCN(C(=O)c2cc(NC(=O)Nc3ccc(F)c(Cl)c3Cl)c(C(C)(C)C)s2)C(C)(CC(=O)OC)C1=O (stereo not drawn),< 5
10,CC(C)(C)c1cc(C(=O)N2CCNC(=O)C2(C)C)c(NC(=O)Nc2c(Cl)cncc2Cl)s1,< 5
11,Cc1ccccc1NC(=O)Nc1sc(C(C)(C)C)cc1C(=O)N1CCNC(=O)CC1,< 5
12,CN(C)CCN1CCN(C(=O)c2cc(C(C)(C)C)sc2NC(=O)Nc2ccccc2C(C)(C)C)C(C)(C)C1=O,< 5
13,Cc1noc(CN2CCN(C(=O)c3cc(C(C)(C)C)sc3NC(=O)Nc3cccc(Cl)c3Cl)C(C)(C)C2=O)n1,< 5
14,CC(C)(C)c1cc(C(=O)N2CCNC(=O)CC2)c(NC(=O)Nc2ccc3c(c2Cl)OCO3)s1,< 5
15,Cc1c(Cl)cccc1NC(=O)Nc1sc(C(C)(C)C)cc1C(=O)N1CCNC(=O)C1(C)CCO (stereo not drawn),< 5
16,CC(C)(C)c1cc(C(=O)N2CCNC(=O)CC2)c(NC(=O)Nc2ccccc2I)s1,< 5
17,CNC(=O)[C@@H]1CCCN1C(=O)c1cc(C(C)(C)C)sc1NC(=O)Nc1ccc(OC(F)F)c(Cl)c1Cl,< 5
18,CN(C)CCN1CCN(C(=O)c2cc(C(C)(C)C)sc2NC(=O)Nc2c(Cl)cncc2Cl)CCC1=O,< 5
19,COc1ccccc1NC(=O)Nc1sc(C(C)(C)C)cc1C(=O)N1CCN(CCN(C)C)C(=O)C1(C)C,< 5
20,CCc1ccccc1NC(=O)Nc1sc(C(C)(C)C)cc1C(=O)N1CCC(=O)N(CCN(C)C)CC1,< 5
21,CC(C)(C)c1cc(C(=O)N2CCNC(=O)C2(C)C)c(NC(=O)Nc2cccc(Cl)c2Cl)[nH]1,< 5
22,CCC1(C)C(=O)N(CC(=O)NCCN2CCCC2)CCN1C(=O)c1cc(C(C)(C)C)sc1NC(=O)Nc1cccc(Cl)c1Cl (stereo not drawn),< 5
23,CC(C)(C)c1cc(C(=O)N2CCN(CC(N)=O)C(=O)C2(C)CC(N)=O)c(NC(=O)Nc2cccc(Cl)c2Cl)s1 (stereo not drawn),< 5
24,Cc1noc(CN2CCN(C(=O)c3cc(C(C)(C)C)sc3NC(=O)Nc3ccc(F)c(Cl)c3Cl)C(C)(C)C2=O)n1,< 5

# Same assay, conditions: concentration not given here
row,Structure (SMILES),inhibition [%]
1,COc1ccc(NC(=O)Nc2sc(C(C)(C)C)cc2C(=O)N2CCNC(=O)CC2)cc1Cl,76 to 100
2,CC(C)(C)c1cc(C(=O)N2CCNC(=O)C(N)C2)c(NC(=O)Nc2cccc(Cl)c2Cl)s1 (stereo not drawn),76 to 100
3,CC(C)(C)c1cc(C(=O)N2CCNC(=O)CC2)c(NC(=O)Nc2ccc(CN)cc2)s1,51 to 75
4,CC(C)(C)c1cc(C(=O)N2CCNC(=O)CC2)c(NC(=O)Nc2cc(Cl)cc(Cl)c2)s1,76 to 100
5,CC(C)(C)c1cc(NC(=O)Nc2ccc(Cl)c(Cl)c2)c(C(=O)N2CCNC(=O)CC2)s1,76 to 100
6,CC(C)(C)c1cc(C(=O)N2CCNS(=O)(=O)CC2)c(NC(=O)Nc2ccc3ocnc3c2)s1,76 to 100
7,CN(C)CCN1CCN(C(=O)c2cc(C(C)(C)C)sc2NC(=O)Nc2cccc(Cl)c2Cl)CCC1=O,76 to 100

# Reference: the Kinase Knowledgebase extract (Sharma et al. 2016)
